This passage reports residual kinase activity results from publication PMC11167047 (Cell Death Discovery, 2024).

What all share (experiment): kinome screen (33PanQinase)
What all share (type): biochemical

Experiment [1] deals with T1, TLK1 (Homo sapiens, UniProt Q9UKI8).
T1 construct: purchased Reaction Biology Europe GmbH (formerly ProQinase)
T1 sequence (Q9UKI8 1-766): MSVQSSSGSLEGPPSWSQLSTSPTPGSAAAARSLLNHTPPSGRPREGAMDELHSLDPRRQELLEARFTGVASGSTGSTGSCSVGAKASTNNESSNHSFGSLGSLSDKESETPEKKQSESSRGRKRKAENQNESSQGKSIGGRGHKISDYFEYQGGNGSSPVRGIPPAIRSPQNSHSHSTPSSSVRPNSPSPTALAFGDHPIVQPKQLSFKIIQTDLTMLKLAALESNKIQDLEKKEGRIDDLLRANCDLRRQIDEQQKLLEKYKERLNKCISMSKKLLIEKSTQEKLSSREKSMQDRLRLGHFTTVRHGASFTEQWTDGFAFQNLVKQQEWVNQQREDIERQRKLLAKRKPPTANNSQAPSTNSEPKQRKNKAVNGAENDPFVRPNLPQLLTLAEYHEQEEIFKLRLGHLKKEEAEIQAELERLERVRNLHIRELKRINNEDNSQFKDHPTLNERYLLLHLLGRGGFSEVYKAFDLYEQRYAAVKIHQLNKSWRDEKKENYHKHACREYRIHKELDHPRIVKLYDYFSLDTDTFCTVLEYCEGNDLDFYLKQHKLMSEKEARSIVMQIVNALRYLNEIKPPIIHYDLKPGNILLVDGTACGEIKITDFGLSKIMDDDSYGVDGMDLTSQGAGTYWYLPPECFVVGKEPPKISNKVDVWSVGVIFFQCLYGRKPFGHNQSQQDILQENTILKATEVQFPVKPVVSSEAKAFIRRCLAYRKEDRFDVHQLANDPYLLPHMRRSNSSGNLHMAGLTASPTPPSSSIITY
The procedure: (§1) The Kinome Screening was performed by Reaction Biology Europe GmbH (http://reactionbiology.com; Freiburg i. Br., Germany).

For experiment [2], the target named is T2, LYN (Homo sapiens, UniProt P07948).
T2 construct: purchased Reaction Biology Europe GmbH (formerly ProQinase)
T2 sequence (P07948 whole entry): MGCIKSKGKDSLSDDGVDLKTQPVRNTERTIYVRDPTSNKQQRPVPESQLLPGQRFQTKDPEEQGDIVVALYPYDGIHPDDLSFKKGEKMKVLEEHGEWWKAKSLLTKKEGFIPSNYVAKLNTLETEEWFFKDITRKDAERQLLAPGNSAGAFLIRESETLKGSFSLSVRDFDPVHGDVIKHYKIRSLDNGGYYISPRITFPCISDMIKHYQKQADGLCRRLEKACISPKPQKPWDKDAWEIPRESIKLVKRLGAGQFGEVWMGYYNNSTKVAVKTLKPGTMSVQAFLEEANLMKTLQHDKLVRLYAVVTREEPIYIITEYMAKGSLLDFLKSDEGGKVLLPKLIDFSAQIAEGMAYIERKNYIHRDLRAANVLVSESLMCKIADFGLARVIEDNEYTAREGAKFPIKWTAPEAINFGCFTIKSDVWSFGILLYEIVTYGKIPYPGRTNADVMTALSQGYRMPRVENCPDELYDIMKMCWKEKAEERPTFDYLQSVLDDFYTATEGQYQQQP
The procedure: as §1

In experiment [3] the target is T3, EPHA1 (Homo sapiens, UniProt P21709).
T3 construct: purchased Reaction Biology Europe GmbH (formerly ProQinase)
T3 sequence (P21709 26-976): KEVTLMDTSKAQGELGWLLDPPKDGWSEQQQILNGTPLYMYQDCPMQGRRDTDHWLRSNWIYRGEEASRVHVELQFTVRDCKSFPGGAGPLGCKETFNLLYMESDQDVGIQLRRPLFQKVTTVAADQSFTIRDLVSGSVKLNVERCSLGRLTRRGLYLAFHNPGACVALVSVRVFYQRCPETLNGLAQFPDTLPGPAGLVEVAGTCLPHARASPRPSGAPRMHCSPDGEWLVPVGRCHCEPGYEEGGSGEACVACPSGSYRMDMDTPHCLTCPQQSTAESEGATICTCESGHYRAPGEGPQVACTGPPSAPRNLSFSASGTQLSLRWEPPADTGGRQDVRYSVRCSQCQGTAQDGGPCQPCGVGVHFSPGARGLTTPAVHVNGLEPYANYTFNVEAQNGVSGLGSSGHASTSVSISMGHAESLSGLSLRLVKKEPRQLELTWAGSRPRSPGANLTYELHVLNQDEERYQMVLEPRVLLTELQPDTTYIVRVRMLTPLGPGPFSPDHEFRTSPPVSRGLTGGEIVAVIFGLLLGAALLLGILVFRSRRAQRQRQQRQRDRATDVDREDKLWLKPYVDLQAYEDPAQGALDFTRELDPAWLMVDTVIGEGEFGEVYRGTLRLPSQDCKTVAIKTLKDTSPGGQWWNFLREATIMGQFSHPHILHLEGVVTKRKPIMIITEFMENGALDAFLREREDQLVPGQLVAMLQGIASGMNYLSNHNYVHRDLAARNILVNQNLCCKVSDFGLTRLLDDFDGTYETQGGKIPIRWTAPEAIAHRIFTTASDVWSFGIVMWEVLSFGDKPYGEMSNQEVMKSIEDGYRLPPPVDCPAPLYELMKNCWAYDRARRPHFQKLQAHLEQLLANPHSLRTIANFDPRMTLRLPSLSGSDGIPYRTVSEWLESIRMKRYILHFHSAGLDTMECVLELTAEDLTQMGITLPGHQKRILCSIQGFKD
How it is done:
as §1

For experiment [4], the target named is T4, CDK2/CycD1 (Homo sapiens, UniProt P24941).
T4 construct: purchased Reaction Biology Europe GmbH (formerly ProQinase)
How it is done: as §1

The target of experiment [5] is T5, FAK (Homo sapiens, UniProt Q05397).
T5 construct: purchased Reaction Biology Europe GmbH (formerly ProQinase)
T5 sequence (Q05397 whole entry): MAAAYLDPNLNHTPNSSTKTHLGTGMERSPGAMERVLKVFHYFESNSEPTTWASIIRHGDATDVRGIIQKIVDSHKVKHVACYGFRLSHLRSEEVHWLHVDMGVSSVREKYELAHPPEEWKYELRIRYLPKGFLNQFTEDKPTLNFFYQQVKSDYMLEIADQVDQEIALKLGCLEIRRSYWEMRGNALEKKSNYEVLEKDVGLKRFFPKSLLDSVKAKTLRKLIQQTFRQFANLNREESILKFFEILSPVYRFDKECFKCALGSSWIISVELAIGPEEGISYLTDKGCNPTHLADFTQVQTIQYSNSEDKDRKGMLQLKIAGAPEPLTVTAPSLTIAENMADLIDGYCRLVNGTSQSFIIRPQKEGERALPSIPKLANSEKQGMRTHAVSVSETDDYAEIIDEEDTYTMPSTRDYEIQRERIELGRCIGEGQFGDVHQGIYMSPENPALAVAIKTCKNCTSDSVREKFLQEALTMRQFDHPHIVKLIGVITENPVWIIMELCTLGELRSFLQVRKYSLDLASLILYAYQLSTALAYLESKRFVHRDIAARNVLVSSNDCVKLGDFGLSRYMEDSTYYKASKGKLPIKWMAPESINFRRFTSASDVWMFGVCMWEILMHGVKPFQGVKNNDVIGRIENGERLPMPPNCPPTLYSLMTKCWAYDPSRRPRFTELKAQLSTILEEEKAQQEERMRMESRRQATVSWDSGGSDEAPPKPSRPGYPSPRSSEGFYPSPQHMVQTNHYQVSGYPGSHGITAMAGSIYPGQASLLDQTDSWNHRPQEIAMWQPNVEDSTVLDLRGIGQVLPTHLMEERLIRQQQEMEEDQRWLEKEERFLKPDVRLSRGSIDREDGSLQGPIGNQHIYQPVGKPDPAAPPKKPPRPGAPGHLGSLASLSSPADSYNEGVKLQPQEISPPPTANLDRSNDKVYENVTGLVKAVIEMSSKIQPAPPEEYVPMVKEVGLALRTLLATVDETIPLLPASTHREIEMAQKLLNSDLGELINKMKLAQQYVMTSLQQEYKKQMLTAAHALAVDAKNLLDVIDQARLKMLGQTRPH
How it is done:
as §1

Experiment [6] concerns the target T6, PHKG2 (Homo sapiens, UniProt P15735).
T6 construct: purchased Reaction Biology Europe GmbH (formerly ProQinase)
T6 sequence (P15735 1-406): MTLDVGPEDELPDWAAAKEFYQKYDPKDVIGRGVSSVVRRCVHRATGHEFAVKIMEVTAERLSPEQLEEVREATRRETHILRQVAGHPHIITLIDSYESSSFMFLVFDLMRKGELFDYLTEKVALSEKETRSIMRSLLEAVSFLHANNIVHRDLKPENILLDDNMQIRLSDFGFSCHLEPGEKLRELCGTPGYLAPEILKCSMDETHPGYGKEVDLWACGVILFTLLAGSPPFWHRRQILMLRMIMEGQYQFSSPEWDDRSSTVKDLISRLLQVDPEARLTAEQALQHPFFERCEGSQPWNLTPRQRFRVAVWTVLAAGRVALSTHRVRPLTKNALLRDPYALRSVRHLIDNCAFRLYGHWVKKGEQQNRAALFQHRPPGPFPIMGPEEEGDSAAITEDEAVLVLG
The procedure:
as §1

The target in experiment [7] is T7, FGR (Homo sapiens, UniProt P09769).
T7 construct: purchased Reaction Biology Europe GmbH (formerly ProQinase)
T7 sequence (P09769 whole entry): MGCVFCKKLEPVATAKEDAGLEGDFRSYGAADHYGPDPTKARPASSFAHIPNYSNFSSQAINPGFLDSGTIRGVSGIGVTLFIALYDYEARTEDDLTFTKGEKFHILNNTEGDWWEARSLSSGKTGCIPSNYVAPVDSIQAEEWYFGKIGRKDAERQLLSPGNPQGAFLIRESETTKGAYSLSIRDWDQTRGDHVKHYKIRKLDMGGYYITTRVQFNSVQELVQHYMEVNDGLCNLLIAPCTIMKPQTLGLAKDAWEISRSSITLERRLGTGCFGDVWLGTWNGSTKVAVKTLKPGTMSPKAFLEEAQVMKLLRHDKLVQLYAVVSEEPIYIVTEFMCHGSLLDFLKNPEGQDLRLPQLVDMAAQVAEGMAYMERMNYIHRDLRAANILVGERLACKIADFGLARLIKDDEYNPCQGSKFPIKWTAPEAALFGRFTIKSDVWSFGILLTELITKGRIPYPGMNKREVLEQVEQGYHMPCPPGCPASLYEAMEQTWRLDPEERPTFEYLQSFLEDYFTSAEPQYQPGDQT
How it is done:
as §1

Experiment [8] addresses T8, CDK18/CycY (Homo sapiens, UniProt Q07002).
T8 construct: purchased Reaction Biology Europe GmbH (formerly ProQinase)
How it is done:
as §1

For experiment [9], the target named is T9, CDK3/CycE1 (Homo sapiens, UniProt Q00526).
T9 construct: purchased Reaction Biology Europe GmbH (formerly ProQinase)
T9 sequence (Q00526 whole entry): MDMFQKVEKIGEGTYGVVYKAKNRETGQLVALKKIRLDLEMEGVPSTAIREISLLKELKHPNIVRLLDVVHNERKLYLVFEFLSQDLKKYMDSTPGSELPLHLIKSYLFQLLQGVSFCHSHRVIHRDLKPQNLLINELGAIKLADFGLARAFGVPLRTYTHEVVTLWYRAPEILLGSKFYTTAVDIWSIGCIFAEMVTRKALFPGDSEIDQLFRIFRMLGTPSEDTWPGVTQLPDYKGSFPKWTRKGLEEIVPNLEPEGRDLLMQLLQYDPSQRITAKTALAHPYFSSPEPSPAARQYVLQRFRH
T9 sequence (P24864 whole entry partner): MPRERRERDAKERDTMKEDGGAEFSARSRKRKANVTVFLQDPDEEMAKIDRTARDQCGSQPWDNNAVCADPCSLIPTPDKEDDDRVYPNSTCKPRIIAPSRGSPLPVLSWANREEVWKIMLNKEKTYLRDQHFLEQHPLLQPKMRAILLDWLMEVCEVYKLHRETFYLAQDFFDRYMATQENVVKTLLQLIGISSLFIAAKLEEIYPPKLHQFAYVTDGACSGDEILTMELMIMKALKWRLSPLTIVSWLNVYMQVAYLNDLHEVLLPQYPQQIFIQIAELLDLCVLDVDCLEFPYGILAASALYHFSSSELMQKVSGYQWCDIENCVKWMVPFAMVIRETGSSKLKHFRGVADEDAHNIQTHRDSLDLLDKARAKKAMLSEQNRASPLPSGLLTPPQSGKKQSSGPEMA
How it is done:
as §1

For experiment [10], the target named is T10, FRK (Homo sapiens, UniProt P42685).
T10 construct: purchased Reaction Biology Europe GmbH (formerly ProQinase)
T10 sequence (P42685 whole entry): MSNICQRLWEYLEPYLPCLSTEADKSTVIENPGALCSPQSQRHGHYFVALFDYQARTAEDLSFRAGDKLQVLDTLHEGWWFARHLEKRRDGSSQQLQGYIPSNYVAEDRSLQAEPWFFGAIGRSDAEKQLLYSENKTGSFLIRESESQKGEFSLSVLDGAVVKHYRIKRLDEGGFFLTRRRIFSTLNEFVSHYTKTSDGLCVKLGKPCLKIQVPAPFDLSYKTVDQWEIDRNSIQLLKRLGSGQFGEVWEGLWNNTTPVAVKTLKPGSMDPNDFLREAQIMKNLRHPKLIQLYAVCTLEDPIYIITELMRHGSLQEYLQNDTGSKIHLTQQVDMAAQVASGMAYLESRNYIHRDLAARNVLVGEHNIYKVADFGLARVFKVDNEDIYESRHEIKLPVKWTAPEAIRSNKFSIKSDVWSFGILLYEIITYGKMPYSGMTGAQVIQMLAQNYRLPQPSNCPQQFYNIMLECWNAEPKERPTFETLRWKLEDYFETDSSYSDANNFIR
How it is done: as §1

The target of experiment [11] is T11, CDK16/CycY (Homo sapiens, UniProt Q00536).
T11 construct: purchased Reaction Biology Europe GmbH (formerly ProQinase)
T11 sequence (Q00536 whole entry): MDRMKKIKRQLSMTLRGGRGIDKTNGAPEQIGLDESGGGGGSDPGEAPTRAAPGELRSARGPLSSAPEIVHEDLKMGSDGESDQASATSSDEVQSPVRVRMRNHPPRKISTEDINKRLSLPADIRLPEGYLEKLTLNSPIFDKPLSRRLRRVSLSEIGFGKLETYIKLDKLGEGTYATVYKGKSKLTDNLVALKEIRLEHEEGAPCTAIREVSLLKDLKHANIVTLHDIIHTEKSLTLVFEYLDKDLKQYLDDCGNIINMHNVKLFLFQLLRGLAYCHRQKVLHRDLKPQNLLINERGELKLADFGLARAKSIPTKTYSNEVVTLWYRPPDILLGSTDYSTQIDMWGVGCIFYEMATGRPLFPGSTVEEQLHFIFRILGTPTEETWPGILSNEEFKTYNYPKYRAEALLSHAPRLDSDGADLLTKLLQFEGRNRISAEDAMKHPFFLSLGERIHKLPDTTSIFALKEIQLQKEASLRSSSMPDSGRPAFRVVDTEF
T11 sequence (Q8ND76 whole entry partner): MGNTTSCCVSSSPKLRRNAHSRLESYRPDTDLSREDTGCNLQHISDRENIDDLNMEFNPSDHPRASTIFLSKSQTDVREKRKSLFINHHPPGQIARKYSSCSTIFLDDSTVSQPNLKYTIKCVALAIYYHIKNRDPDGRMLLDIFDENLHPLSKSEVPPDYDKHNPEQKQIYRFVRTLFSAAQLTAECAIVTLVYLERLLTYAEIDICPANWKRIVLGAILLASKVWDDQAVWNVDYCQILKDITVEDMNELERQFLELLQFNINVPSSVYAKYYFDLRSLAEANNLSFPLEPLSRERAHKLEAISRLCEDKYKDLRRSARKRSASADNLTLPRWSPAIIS
How it is done: as §1

T8 sequence (Q07002 whole entry): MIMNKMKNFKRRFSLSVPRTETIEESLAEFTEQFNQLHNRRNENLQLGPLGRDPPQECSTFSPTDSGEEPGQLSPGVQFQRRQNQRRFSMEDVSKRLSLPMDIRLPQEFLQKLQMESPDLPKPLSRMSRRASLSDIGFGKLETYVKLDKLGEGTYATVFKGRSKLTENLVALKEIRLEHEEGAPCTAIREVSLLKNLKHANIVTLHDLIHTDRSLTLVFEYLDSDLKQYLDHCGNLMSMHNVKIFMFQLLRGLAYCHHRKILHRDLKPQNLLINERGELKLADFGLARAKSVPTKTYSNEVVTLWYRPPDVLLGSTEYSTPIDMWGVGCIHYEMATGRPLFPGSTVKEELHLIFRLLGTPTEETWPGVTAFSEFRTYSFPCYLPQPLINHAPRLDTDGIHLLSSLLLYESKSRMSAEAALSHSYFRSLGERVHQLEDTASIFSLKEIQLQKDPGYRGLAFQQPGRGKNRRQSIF
T8 sequence (Q8ND76 whole entry partner): as the sequence (Q8ND76 whole entry partner) above

Turning to `c1ccc(CNc2cc(-c3c[nH]c4ncccc34)ccn2)cc1` [meriolin 36], the residual kinase activity in experiment [1] (0.3 µM) is reported as 119 % of control; in experiment [1] (3 µM), 106 % of control; in experiment [2] (0.3 µM), 73 % of control; in experiment [2] (3 µM), 25 % of control; in experiment [3] (0.3 µM), 127 % of control; in experiment [3] (3 µM) it was 126 % of control. Further, the residual kinase activity is 6 % of control in experiment [4] (0.3 µM); 5 % of control in [4] (3 µM); 85 % of control in experiment [5] (0.3 µM); 60 % of control in experiment [5] (3 µM); 52 % of control in [6] (0.3 µM); 23 % of control in [6] (3 µM). The residual kinase activity is 40 % of control in [7] (0.3 µM); 6 % of control in [7] (3 µM); 6 % of control in [8] (0.3 µM); 0 % of control in experiment [8] (3 µM); 1 % of control in experiment [9] (0.3 µM); -1 % of control in [9] (3 µM). For the same compound, the residual kinase activity in experiment [10] (0.3 µM) is 54 % of control; in experiment [10] (3 µM), 16 % of control; in experiment [11] (0.3 µM) it was 17 % of control; in [11] (3 µM), 3 % of control.
As for `COc1ccnc2[nH]cc(-c3cc(N)nc(N)c3)c12` [meriolin 16], the residual kinase activity in experiment [1] (0.03 µM) is given as 98 % of control; in experiment [1] (0.3 µM) it was 89 % of control; in experiment [2] (0.03 µM), 105 % of control; in experiment [2] (0.3 µM), 81 % of control; in experiment [3] (0.03 µM), 128 % of control; in [3] (0.3 µM), 116 % of control. Moreover, the residual kinase activity in [4] (0.03 µM) is reported as 54 % of control; in experiment [4] (0.3 µM), 23 % of control; in experiment [5] (0.03 µM), 102 % of control; in [5] (0.3 µM) it was 89 % of control; in experiment [6] (0.03 µM) it was 74 % of control; in [6] (0.3 µM) it was 52 % of control. The residual kinase activity in experiment [7] (0.03 µM) is reported as 111 % of control; in [7] (0.3 µM), 105 % of control; in experiment [8] (0.03 µM), 36 % of control; in experiment [8] (0.3 µM), 5 % of control; in experiment [9] (0.03 µM), 36 % of control; in [9] (0.3 µM), 5 % of control. For the same compound, the residual kinase activity in experiment [10] (0.03 µM) is given as 103 % of control; in [10] (0.3 µM) it was 99 % of control; in experiment [11] (0.03 µM) it was 64 % of control; in experiment [11] (0.3 µM), 16 % of control.
